One test deals with HIV-1IIIB. Briefly: HIV-1 antiviral assay (cytopathic effect) in CEM-SS cells. To be noted: for antiviral activity of positive control compounds (HIV-1): CEM-SS cells; for reduction of the cytopathic effect (CPE) in HIV-1 infected CEM-SS cells: 10 micrograms per ml, HIV-1IIIB, 6 days post-infection, MTS. On the technique in general: Cytopathic effects are the visible damage that an infection or toxin causes in cultured cells.

A further test deals with HCMV strain AD169. Briefly: HCMV plaque formation assay in MRC-5 cells. Conditions: for inhibition of HCMV plaque formation as compared to the virus control: 10 micrograms per ml, 7-10 days.
The subject of test [1] is Primary Human endothelial cells (HUVEC). As to the kind of experiment: Endothelial cell migration assay. The class given is cell-based. Conditions: 10 micrograms per ml, 22 hours.
The subject of another test is murine spleen cells. As to the kind of experiment: Th1/Th2 cytokine profiling assay. Type of test: cell-based, Balb/c mice. Conditions: 10 micrograms per ml; Ovalbumin restimulation; 72 hours.
In a further test the test system is HUVEC. As to the kind of experiment: Endothelial tube formation assay. Type of test: cell-based, human. Conditions: 10 micrograms per ml, 20 hours.
The test system of the next test is Streptococcus pneumoniae. As to the kind of experiment: Streptococcus pneumoniae assay. To be noted: 10 micrograms per ml; 5x10^5 CFU/mL.
Test [2] deals with hepatitis B virus (HBV) ayw strain. As to the kind of experiment: HBV experimental assay system (secreted HBV DNA, TaqMan PCR). The class given is cell-based. To be noted: 10 micrograms per ml; HepG2-2.2.15; six days; HBV DNA by TaqMan PCR. An excerpt:
HepG2-2.2.15 is a stable cell line containing the hepatitis B virus (HBV) ayw strain genome (ATCC Cat. No. CRL-11997). Antiviral compounds blocking any late step of viral replication such as transcription, translation, pregenome encapsidation, reverse transcription, particle assembly and release can be identified and characterized using this cell line. In this assay, an active compound will reduce the production of secreted HBV from cells, measured by utilizing real time quantitative PCR (TaqMan) assay to directly and accurately measure HBV DNA copies.
HepG2-2.2.15 cells were plated in 96-well microtiter plates. After 16-24 hours the confluent monolayer of HepG2-2.2.15 cells was washed and the medium was replaced with complete medium containing test peptides—10 micrograms per ml—in duplicate. […] Six days following the initial administration of the peptides, the cell culture supernatants was collected, treated with pronase and DNAse and then used in a real-time quantitative TaqMan PCR assay. The PCR-amplified HBV DNA was detected in real-time by monitoring increases in fluorescence signals that result from the exonucleolytic degradation of a quenched fluorescence probe molecule that hybridizes to the amplified HBV DNA. […] Antiviral activity was calculated from the reduction in HBV DNA levels (% virus control). […]
Background: In qPCR the cycle at which signal appears reflects the starting amount.

The subject of another test is Human A549 cells. As to the kind of experiment: Apoptosis prevention assay (C2 ceramide, Annexin-5). Type of test: cell-based. To be noted: 10 micrograms per ml, 30 min pretreatment.

Where no end group is shown, it is not given here.

On to `Cc1cn([C@H]2C[C@H](N=[N+]=[N-])[C@@H](CO)O2)c(=O)[nH]c1=O` [AZT, zidovudine, reference compound], for which the “antiviral activity of positive control compounds (HIV-1)” value in the test on HIV-1IIIB is “expected levels of antiviral activity”.
`Nc1nc(O)c2ncn(COC(CO)CO)c2n1` [Ganciclovir, reference compound]: the “antiviral activity of positive control compound (HCMV)” value with HCMV strain AD169 (positive control) is reported as “expected levels of antiviral activity”.
Turning to `CC[C@H](C)[C@H](NC(=O)[C@H](CCC(=O)O)NC(=O)[C@H](CO)NC(=O)[C@@H](NC(=O)[C@@H](N)CO)C(C)C)C(=O)N[C@@H](CCC(N)=O)C(=O)N[C@@H](CC(C)C)C(=O)N[C@@H](CCSC)C(=O)N[C@@H](Cc1cnc[nH]1)C(=O)N[C@@H](CC(N)=O)C(=O)N[C@@H](CC(C)C)C(=O)NCC(=O)N[C@@H](CCCCN)C(=O)N[C@@H](Cc1cnc[nH]1)C(=O)N[C@@H](CC(C)C)C(=O)N[C@@H](CC(N)=O)C(=O)N[C@@H](CO)C(=O)N[C@@H](CCSC)C(=O)N[C@@H](CCC(=O)O)C(=O)N[C@@H](CCCN=C(N)N)C(=O)N[C@H](C(=O)N[C@@H](CCC(=O)O)C(=O)N[C@@H](Cc1c[nH]c2ccccc12)C(=O)N[C@@H](CC(C)C)C(=O)N[C@@H](CCCN=C(N)N)C(=O)N[C@@H](CCCCN)C(=O)N[C@@H](CCCCN)C(=O)N[C@@H](CC(C)C)C(=O)N[C@@H](CCC(N)=O)C(=O)N[C@@H](CC(=O)O)C(=O)N[C@H](C(=O)N[C@@H](Cc1cnc[nH]1)C(=O)N[C@@H](CC(N)=O)C(=O)N[C@@H](Cc1ccccc1)C(=O)O)C(C)C)C(C)C` [Peptide 2], the “inhibition of the migration of human endothelial cells” value in test [1] is listed as “no effect”. Also, in the test with murine spleen cells, the “change of the production of IL-5 in murine spleen cells” value is “did not significantly change”, the “decrease of the production of IFN-γ in murine spleen cells” value came to 31.4%, the “increase of the production of IL-2 in murine spleen cells” value came out at 80.4% and the “increase of the production of IL-4 in murine spleen cells” value turned out to be 35.2%. Further, in the test on murine spleen cells, the “induction of the production of TNF-alpha in murine spleen cells” value is reported as “did not significantly change”. Also, the “inhibition of the tube formation of human endothelial cells” value with HUVEC is given as 28%. For the same compound, the “reduction of the cytopathic effect (CPE) in HIV-1 infected CEM-SS cells” value in the test on HIV-1IIIB worked out at 18.1%. Moreover, in the test with HCMV strain AD169, the “inhibition of HCMV plaque formation as compared to the virus control” value was “did not inhibit”. Further, the “inhibition of the growth of Streptococcus pneumoniae” value in the test on Streptococcus pneumoniae was “no effect”. Moreover, the “inhibition of HBV replication as compared to the virus control infection” value in test [2] was determined as 0%. Also, the “reduction of the ceramide-induced apoptosis on human lung cells” value in the test with Human A549 cells was found to be 23.9%.
As for `CC(C)(C)NC(=O)[C@@H]1CN(Cc2cccnc2)CCN1C[C@@H](O)C[C@@H](Cc1ccccc1)C(=O)N[C@H]1c2ccccc2C[C@H]1O` [indinavir, reference compound], the “antiviral activity of positive control compounds (HIV-1)” value in the test with HIV-1IIIB is given as “expected levels of antiviral activity”.
For “Gly-Arg-Gly-Asp-Asn-Pro-OH (GRGDNP-OH) [Peptide 1]”, in the test with murine spleen cells, the “change of the production of IL-5 in murine spleen cells” value was “did not significantly change”, the “decrease of the production of IFN-γ in murine spleen cells” value is “did not significantly change”, the “increase of the production of IL-2 in murine spleen cells” value was 58.8% and the “increase of the production of IL-4 in murine spleen cells” value worked out at 55.6%. Besides, in the test with murine spleen cells, the “induction of the production of TNF-alpha in murine spleen cells” value came to 23.7%. In addition, the “inhibition of the tube formation of human endothelial cells” value in the test with HUVEC is “no effect”. Moreover, in the test on HIV-1IIIB, the “reduction of the cytopathic effect (CPE) in HIV-1 infected CEM-SS cells” value is 100%. In addition, the “inhibition of HCMV plaque formation as compared to the virus control” value with HCMV strain AD169 is recorded as “did not inhibit”. Also, the “inhibition of the growth of Streptococcus pneumoniae” value with Streptococcus pneumoniae came out at 100%. Moreover, in test [2], the “inhibition of HBV replication as compared to the virus control infection” value amounted to 36.4%. For the same compound, in the test on Human A549 cells, the “reduction of the ceramide-induced apoptosis on human lung cells” value was “did not reduce”.

The values are drawn from patent US20100197585A1, “USE OF A RGD-PEPTIDE AND/OR PARATHYROID HORMONE (1-34) AS ANTI-HIV AGENT” (priority 2007, published 2010).
